Earlier results, collected in patent US20230364118A1, “RIBITOL TREATMENT” (priority 2020, published 2023).

Conditions: rabbits; cited from earlier work

## O=C[C@H](O)[C@H](O)[C@H](O)CO [D-ribose]
  half-life: 14 to 24 min
